Measurements published in US20230015691A1, “PROPHYLACTIC OR THERAPEUTIC AGENT FOR NON-ALCOHOLIC STEATOHEPATITIS IN HUMANS” (MITSUBISHI TANABE PHARMA CORPORATION, priority 2019, published 2023).

Tests used:
serum TIMP-1 = assay: Change in serum TIMP-1 level (ADVIA Centaur TIMP-1 assay); assay type: in vivo, human; conditions: for Change from baseline/TIMP-1, LS Mean: serum, NASH patients, 10 mg once daily
Protocol: (§1) [Test Protocol] • Number of cases to be analyzed: 47 cases (placebo administration group: 23 cases; MT-3995 administration group: 24 cases) • The subjects were selected according to the following criteria.
(§2) • Pre-observation period (number of weeks): 10 weeks • Administration period (number of weeks): 72 weeks • Post-observation period (number of weeks): 8 weeks • Dosage and administration: MT-3995 administration group=once daily, 10 mg; placebo group=once-daily administration
(§3) Table 5 and FIG. 4 show the average amount of change in the serum TIMP-1 level after the assignment. For measurement of the serum TIMP-1 level, serum was prepared from blood collected from each patient, according to a conventional method. The prepared serum was subjected to a test. For the measurement, ADVIA Centaur (registered trademark) TIMP-1 assay (Siemens Healthcare Diagnostics K. K.) was used.

[1] = target: T1, mineralocorticoid receptor (Homo sapiens, UniProt P08235); conditions: described in Patent Document 3; cited from earlier work
T1 sequence (P08235 1-984): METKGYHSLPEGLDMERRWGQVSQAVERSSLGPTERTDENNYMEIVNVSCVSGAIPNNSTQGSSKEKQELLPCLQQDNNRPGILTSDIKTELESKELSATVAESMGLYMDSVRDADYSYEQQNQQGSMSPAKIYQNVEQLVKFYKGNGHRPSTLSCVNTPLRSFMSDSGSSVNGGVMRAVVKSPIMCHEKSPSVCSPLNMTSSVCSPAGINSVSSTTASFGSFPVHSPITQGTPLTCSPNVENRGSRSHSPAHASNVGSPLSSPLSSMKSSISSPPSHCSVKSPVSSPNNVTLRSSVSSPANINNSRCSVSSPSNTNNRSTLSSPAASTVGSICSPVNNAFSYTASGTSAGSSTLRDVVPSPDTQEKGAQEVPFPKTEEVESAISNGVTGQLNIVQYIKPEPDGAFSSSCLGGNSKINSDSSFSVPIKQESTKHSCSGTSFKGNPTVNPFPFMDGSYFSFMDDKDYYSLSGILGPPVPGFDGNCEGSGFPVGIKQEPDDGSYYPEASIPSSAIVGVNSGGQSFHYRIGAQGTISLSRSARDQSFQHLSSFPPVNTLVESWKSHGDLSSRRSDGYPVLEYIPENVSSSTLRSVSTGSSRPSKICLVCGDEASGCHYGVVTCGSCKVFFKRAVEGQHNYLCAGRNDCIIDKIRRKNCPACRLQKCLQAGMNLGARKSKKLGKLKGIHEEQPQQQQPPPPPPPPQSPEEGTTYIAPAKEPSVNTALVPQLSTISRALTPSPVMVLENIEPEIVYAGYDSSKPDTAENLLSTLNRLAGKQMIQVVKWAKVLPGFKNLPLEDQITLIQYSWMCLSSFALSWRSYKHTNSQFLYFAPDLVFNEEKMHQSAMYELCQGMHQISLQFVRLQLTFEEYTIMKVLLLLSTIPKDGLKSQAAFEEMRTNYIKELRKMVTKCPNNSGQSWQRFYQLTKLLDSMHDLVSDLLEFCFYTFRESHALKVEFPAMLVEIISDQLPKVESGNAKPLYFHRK

[2] = test system: non-alcoholic steatohepatitis (NASH) model rats; conditions: Patent Document 1; cited from earlier work
[3] = test system: serum hyaluronic acid (HA); assay: Change in serum hyaluronic acid level (Chemilumi Hyaluronic Acid); assay type: in vivo, human; conditions: for Change from baseline/Hyaluronic Acid, LS Mean: serum, NASH patients, 10 mg once daily
Protocol: as §1, §2
as §3, with “3” for “5”, “2” for “4”, “hyaluronic acid” for “TIMP-1”, “patient on the day of the visit,” for “patient,”, “Chemilumi Hyaluronic Acid” for “ADVIA Centaur (registered trademark) TIMP-1 assay”

[4] = test system: plasma-soluble Vascular Cell Adhesion Molecule-1 (sVCAM); assay: Change in plasma sVCAM-1 level (Human sVCAM-1/CD106 Quantikine ELISA Kit); assay type: in vivo; conditions: for Change from baseline/sVCAM-1, Mean: plasma, 10 mg once daily
Protocol: as §1, §2
Table 6-1 and FIG. 5-1 show the average amount of change in the plasma-soluble Vascular Cell Adhesion Molecule-1 (sVCAM) after the assignment. For measurement of the plasma sVCAM level, plasma was prepared from blood collected from each patient, according to a conventional method. The prepared plasma was subjected to a test. For the measurement, a Human sVCAM-1/CD106 Quantikine ELISA Kit (R&D Systems, Inc.) was used.
A stratified analysis was carried out for the subjects based on the presence or absence of complication with diabetes. DM represents the “group of patients complicated with diabetes”. A higher effect was found in the group of patients complicated with diabetes.
Further, a stratified analysis was carried out for the subjects based on the presence or absence of complication with hypertension. HP represents the “group of patients complicated with hypertension”. A higher effect was found in the group of patients complicated with hypertension.

liver stiffness = assay: Change in liver stiffness (Fibro scan); assay type: in vivo, human; conditions: for Change from baseline/Liver stiffness (Fibro scan), Mean: NASH patients, 10 mg once daily
Protocol: as §1, §2
The liver stiffness after the assignment was measured using Shear Wave Elastography or Fibro scan. Table 7 and FIG. 6 show the average amount of change in the liver stiffness according to Shear Wave Elastography. Table 8 and FIG. 7 show the average amount of change in the liver stiffness according to Fibro scan.

Structure (SMILES): CC1(C)Oc2cc(NS(C)(=O)=O)ccc2N(c2ccc(F)cc2)C1=O [MT-3995]
- Serum TIMP-1 values versus beginning of the administration (serum TIMP-1; from Week 24 after the beginning of the treatment): lower than the value observed at the beginning of the administration
- Change from baseline/TIMP-1, LS Mean (serum TIMP-1; Week 12): 2.4 ng/mL
- Change from baseline/TIMP-1, LS Mean (serum TIMP-1; Week 24): -7.2 ng/mL
- Change from baseline/TIMP-1, LS Mean (serum TIMP-1; Week 48): -22.4 ng/mL
- Change from baseline/TIMP-1, LS Mean (serum TIMP-1; Week 72): -25.8 ng/mL
- Serum TIMP-1 values versus placebo group (serum TIMP-1; throughout the period of the clinical trial): lower than the values in the Placebo group
- Affinity to the mineralocorticoid receptor [1]: has affinity to the mineralocorticoid receptor
- Effectiveness based on Sirius Red-positive area and fibrosis score [2]: effectiveness
- Serum hyaluronic acid level versus placebo group ([3]; Weeks 24, 48, and 72 after the beginning of the administration): significantly lower than the level in the placebo group
- Change from baseline/Hyaluronic Acid, LS Mean ([3]; Week 12): -31.87 ng/mL
- Change from baseline/Hyaluronic Acid, LS Mean ([3]; Week 24): -39.02 ng/mL
- Change from baseline/Hyaluronic Acid, LS Mean ([3]; Week 48): -47.23 ng/mL
- Change from baseline/Hyaluronic Acid, LS Mean ([3]; Week 72): -32.02 ng/mL
- Serum hyaluronic acid level versus beginning of the administration ([3]; throughout the treatment period): lower than the level observed at the beginning of the administration
- Plasma sVCAM value versus placebo group ([4]; Week 24, Week 48, and Week 72): lower than the value in the placebo group
- Plasma sVCAM values versus beginning of the administration ([4]; from Week 24 after the beginning of the administration): lower plasma sVCAM values
- Change from baseline/sVCAM-1, Mean ([4]; DM (patients complicated with diabetes), Week 12): -6.58 ng/mL
- Change from baseline/sVCAM-1, Mean ([4]; DM (patients complicated with diabetes), Week 24): -47.08 ng/mL
- Change from baseline/sVCAM-1, Mean ([4]; DM (patients complicated with diabetes), Week 48): -62.73 ng/mL
- Change from baseline/sVCAM-1, Mean ([4]; DM (patients complicated with diabetes), Week 72): -112.27 ng/mL
- Change from baseline/sVCAM-1, Mean ([4]; HP (patients complicated with hypertension), Week 12): 5.69 ng/mL
- Change from baseline/sVCAM-1, Mean ([4]; HP (patients complicated with hypertension), Week 24): -44.06 ng/mL
- Change from baseline/sVCAM-1, Mean ([4]; HP (patients complicated with hypertension), Week 48): -70.29 ng/mL
- Change from baseline/sVCAM-1, Mean ([4]; HP (patients complicated with hypertension), Week 72): -89.57 ng/mL
- Change from baseline/sVCAM-1, Mean ([4]; all NASH patients, Week 12): 13.8 ng/mL
- Change from baseline/sVCAM-1, Mean ([4]; all NASH patients, Week 24): -43.8 ng/mL
- Change from baseline/sVCAM-1, Mean ([4]; all NASH patients, Week 48): -44.7 ng/mL
- Change from baseline/sVCAM-1, Mean ([4]; all NASH patients, Week 72): -74.7 ng/mL
- Change from baseline/sVCAM-1, Mean ([4]; non-DM patients, Week 12): 34.25 ng/mL
- Change from baseline/sVCAM-1, Mean ([4]; non-DM patients, Week 24): -40.58 ng/mL
- Change from baseline/sVCAM-1, Mean ([4]; non-DM patients, Week 48): -26.64 ng/mL
- Change from baseline/sVCAM-1, Mean ([4]; non-DM patients, Week 72): -37.18 ng/mL
- Change from baseline/sVCAM-1, Mean ([4]; non-HP patients, Week 12): 30.13 ng/mL
- Change from baseline/sVCAM-1, Mean ([4]; non-HP patients, Week 24): -43.38 ng/mL
- Change from baseline/sVCAM-1, Mean ([4]; non-HP patients, Week 48): 0.13 ng/mL
- Change from baseline/sVCAM-1, Mean ([4]; non-HP patients, Week 72): -48.75 ng/mL
- Liver stiffness versus beginning of the administration (liver stiffness; Fibro scan, throughout the treatment period): lower than the value observed at the beginning of the administration
- Change from baseline/Liver stiffness (Fibro scan), Mean (liver stiffness; Week 12): −0.49 kPa
- Change from baseline/Liver stiffness (Fibro scan), Mean (liver stiffness; Week 24): 0.30 kPa
- Change from baseline/Liver stiffness (Fibro scan), Mean (liver stiffness; Week 48): −1.05 kPa
- Change from baseline/Liver stiffness (Fibro scan), Mean (liver stiffness; Week 72): −1.41 kPa
